In patent publication US12496320B2, “Lactobacillus sp. strain and use thereof” (LG HOUSEHOLD & HEALTH CARE LTD., priority 2020, dated 2025):

Legend:
Format in all cases: cell-based
MNT-1 melanoma cells = assay: Melanin production inhibitory ability; conditions: 200 μg/mL, 72 hours
Protocol: The melanin production inhibitory ability (brightening) of the Lactobacillus pentosus […]-1 strain of the present invention was investigated. Specifically, MNT-1 melanoma cells were prepared by adding 10% FBS to DMEM (Dulbecco's Modified Eagle's Medium) as a basal medium. Then, the MNT-1 melanoma cells were seeded in a 6-well plate at a concentration of 1 to 2×10^5 cells/mL and cultured for 24 hours. Subsequently, the strain of the present invention was treated, and the cells were cultured for 72 hours and then recovered. Then, after centrifugation at 13,000 rpm for 1 minute and removal of the supernatant, 300 μL of a 0.5% Triton X-100 solution was added to the pellet to lyse the cells. Thereafter, centrifugation was performed at 13,000 rpm for 3 minutes, and the pellet and supernatant were recovered. Then, 100 μL of 0.5N NaOH was added to the pellet, and the cells were incubated overnight to dissolve melanin, and then the absorbance at 450 nm was measured using an ELISA reader.

[1] = tested on: raw 264.7 mouse macrophages; assay: Nitric oxide production inhibitory ability, GRIESS method, LPS stimulated; conditions: 100 uM, 500 ng/mL LPS
Protocol: The NO production inhibitory ability of the Lactobacillus pentosus NIFSLG-1 strain of the present invention was investigated. Specifically, the nitric oxide (NO) production ability in raw 264.7 mouse macrophages was evaluated for anti-inflammatory efficacy using the GRIESS method. First, the Raw 264.7 cells (2×10^5 cells/well) were dispensed into a 24-well culture plate, cultured in a DMEM medium containing 10% FBS (fetal bovine serum) for 24 hours, and then cultured in a medium without FBS for 12 hours. Subsequently, […] and pretreated for 30 minutes, and added to the cells with LPS (lipopolysaccharide) to a final concentration of 500 ng/ml, and then cultured for 18 hours.
Thereafter, the supernatant was recovered, and the GRIESS reagent was added, followed by reacting at room temperature for 15 minutes, and the absorbance was measured at 540 nm to evaluate the relative NO production and production inhibitory ability.

skin fibroblasts = assay: Collagen synthesis effect, ELISA; conditions: concentration 100 (unit not given), 24 hours
Protocol: The efficacy of collagen synthesis was investigated for the Lactobacillus pentosus […]-1 strain of the present invention. Specifically, after primary culture of skin fibroblasts, DMEM (Dulbecco's Modified Eagle's Medium) with an addition of 10% FBS was used as a basal medium for the skin fibroblasts. Then, the skin fibroblasts were seeded in a 48-well plate at a concentration of 2 to 5×10^4 cells/mL and cultured for 24 hours. Subsequently, the growth medium was removed, and a medium containing the strain of the present invention (without FBS added) was added, and the cells were cultured for 24 hours, and thereafter the cell culture solution was taken and subjected to ELISA analysis.

In the case of `OC[C@H]1O[C@@H](Oc2ccc(O)cc2)[C@H](O)[C@@H](O)[C@@H]1O` [Arbutin], the “Melanin content (% control)” value (MNT-1 melanoma cells) is reported as 74.37 % control.
With `CNC(=N)NCCC[C@H](N)C(=O)O` [L-NMMA] the “Inhibition Rate (% control) of NO production” value [1] was 81.2 % control.
With `O=C1O[C@H]([C@@H](O)CO)C(O)=C1O` [Vita C] the “Collagen (% control)” value (skin fibroblasts) was 161.91 % control.
